We go through nine compounds from US9199967B2, “Substituted heterocyclic amine compounds as cholestryl ester-transfer protein (CETP) inhibitors” (Dr. Reddy's Laboratories Ltd., priority 2011, dated 2015).

For this experiment, the target named is T1, rCETP (Homo sapiens, UniProt P11597).
T1 sequence (P11597 18-493): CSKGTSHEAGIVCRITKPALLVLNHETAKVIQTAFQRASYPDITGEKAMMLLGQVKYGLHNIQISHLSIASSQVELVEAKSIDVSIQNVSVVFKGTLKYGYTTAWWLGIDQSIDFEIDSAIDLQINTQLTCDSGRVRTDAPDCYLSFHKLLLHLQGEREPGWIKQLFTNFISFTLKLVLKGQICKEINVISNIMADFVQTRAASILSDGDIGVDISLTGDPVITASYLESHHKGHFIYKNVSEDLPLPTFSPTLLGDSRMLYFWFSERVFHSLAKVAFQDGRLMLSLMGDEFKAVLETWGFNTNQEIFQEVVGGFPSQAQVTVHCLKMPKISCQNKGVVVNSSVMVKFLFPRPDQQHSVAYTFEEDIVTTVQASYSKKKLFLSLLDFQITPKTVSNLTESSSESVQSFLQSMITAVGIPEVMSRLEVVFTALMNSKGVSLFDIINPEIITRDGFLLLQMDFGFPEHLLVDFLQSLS
The experiment in a line: In vitro CETP inhibition assay, fluorometric kit (ROAR Biomedicals). Format: biochemical. The following applies: rCETP 50 ng, 37° C., 90 minutes, fluorescence Ex 492 nm / Em 516 nm; read-out: IC50 (nM), inhibitory effect on CETP. The text has this: An in vitro cholesteryl ester transfer protein inhibition (CETP) assay using a commercially available fluorometric assay kit from ROAR Biomedicals, USA was used to measure the CETP inhibition activity of the compounds of this application. This assay kit uses a donor molecule containing a fluorescent self-quenched neutral lipid that is transferred to an acceptor molecule in the presence of CETP enzyme. The CETP-mediated transfer of the fluorescent neutral lipid to the acceptor molecule results in an increase in fluorescence (Excitation: 492 nm; Emission: 516 nm).
A 20 mM stock solution of compounds were prepared in 100% DMSO and further dilutions were made such that the final concentration of DMSO in the reaction mix was 1%. […] The assay was performed in 96 well microplates and in each well, the reaction mixture contained 190 μl of assay buffer (150 mM NaCl, 10 mM Tris and 2 mM EDTA, pH-7.4), 4 μl of donor particle, 4 IA of acceptor particle, rCETP (50 ng) and 2 μl of test compound at varying final concentration of 0.1, 1, 10, 100, 1000 & 10000 nM. Two control reactions were performed, one without test compound (positive control) and the other without the rCETP (negative control). The reactions were incubated at 37° C. for 90 minutes and the reaction plate was transferred to a PCR machine MX3005P and the fluorescence units (FLU) were quantified (Excitation: 492 nm; Emission: 516 nm).
The negative control values were subtracted from the positive control as well as all the test values to correct for background fluorescence. The percentage inhibition of activity is calculated by using the following equation: % Inhibition of CETP activity=[100−(100×(FLU in test/FLU in positive control))].
The half maximal inhibitory concentration (IC50) was determined using the BIOGRAPH software (version no. 3.3).

With `CC1(C)CCc2cc(CN(Cc3cc(C(F)(F)F)cc(C(F)(F)F)c3)c3ncc(N4CCCC4=O)cn3)c(N(CC3CC3)CC3CC3)nc21` [Example 2, 1-(2-(((2-(bis(cyclopropylmethyl)amino)-7,7-dimethyl-6,7-dihydro-5H-cyclopenta[b]pyridin-3-yl)methyl)(3,5-bis(trifluoromethyl)benzyl)amino)pyrimidin-5-yl) pyrrolidin-2-one], the IC50 – broadly, the concentration at which inhibition is half-maximal – is around 29 nM.
Under `CC1(C)CCc2cc(CN(Cc3cc(C(F)(F)F)cc(C(F)(F)F)c3)c3ncc(N4CCOCC4)cn3)c(N(CC3CC3)CC3CC3)nc21` [Example 3, 3-(((3,5-bis(trifluoromethyl)benzyl)(5-morpholinopyrimidin-2-yl)amino)methyl)-N,N-bis(cyclopropylmethyl)-7,7-dimethyl-6,7-dihydro-5H-cyclopenta[b]pyridin-2-amine] stands around 20 nM; under `CC(=O)c1cnc(N(Cc2cc(C(F)(F)F)cc(C(F)(F)F)c2)Cc2cc3c(nc2N(CC2CC2)CC2CC2)C(C)(C)CC3)nc1` [Example 4, 1-(2-(((2-(bis(cyclopropylmethyl)amino)-7,7-dimethyl-6,7-dihydro-5H-cyclopenta[b]pyridin-3-yl)methyl)(3,5-bis(trifluoromethyl)benzyl)amino)pyrimidin-5-yl)ethanone], around 50 nM.
For `CC1(C)CCc2cc(CN(Cc3cc(C(F)(F)F)cc(C(F)(F)F)c3)c3ncc(-c4cc[nH]n4)cn3)c(N(CC3CC3)CC3CC3)nc21` [Example 6, 3-(((5-(1H-pyrazol-3-yl)pyrimidin-2-yl)(3,5-bis(trifluoromethyl)benzyl)amino)methyl)-N,N-bis(cyclopropylmethyl)-7,7-dimethyl-6,7-dihydro-5H-cyclopenta[b]pyridin-2-amine], the IC50 is around 29 nM.
Regarding `CC1(C)CCc2cc(CN(Cc3cc(C(F)(F)F)cc(C(F)(F)F)c3)c3ncc(-c4ccon4)cn3)c(N(CC3CC3)CC3CC3)nc21` [Example 7, 3-(((3,5-bis(trifluoromethyl)benzyl)(5-(isoxazol-3-yl)pyrimidin-2-yl)amino)methyl)-N,N-bis(cyclopropylmethyl)-7,7-dimethyl-6,7-dihydro-5H-cyclopenta[b]pyridin-2-amine], the IC50 is around 33 nM.
The value for `CC1(C)CCc2cc(CN(Cc3cc(C(F)(F)F)cc(C(F)(F)F)c3)c3ncc(C(N)=O)cn3)c(N(CC3CC3)CC3CC3)nc21` [Example 9, 2-(((2-(bis(cyclopropylmethyl)amino)-7,7-dimethyl-6,7-dihydro-5H-cyclopenta[b]pyridin-3-yl)methyl)(3,5-bis(trifluoromethyl)benzyl)amino) pyrimidine-5-carboxamide] was around 94 nM; that for `CC1CCc2cc(CN(Cc3cc(C(F)(F)F)cc(C(F)(F)F)c3)c3ncc(N4CCOCC4)cn3)c(N(CC3CC3)CC3CC3)nc21` (stereo not drawn) [Example 10, 3-(((3,5-bis(trifluoromethyl)benzyl)(5-morpholinopyrimidin-2-yl)amino)methyl)-N,N-bis(cyclopropylmethyl)-7-methyl-6,7-dihydro-5H-cyclopenta[b]pyridin-2-amine] was around 90 nM.
The value for `CC1CCCc2cc(CN(Cc3cc(C(F)(F)F)cc(C(F)(F)F)c3)c3ncc(N4CCOCC4)cn3)c(N(CC3CC3)CC3CC3)nc21` (stereo not drawn) [Example 11, 3-(((3,5-bis(trifluoromethyl)benzyl)(5-morpholinopyrimidin-2-yl)amino)methyl)-N,N-bis(cyclopropylmethyl)-8-methyl-5,6,7,8-tetrahydroquinolin-2-amine] was around 40 nM.
Regarding `CC1(C)CCc2cc(CN(Cc3cc(C(F)(F)F)cc(C(F)(F)F)c3)c3ccc4[nH]c(=O)oc4c3)c(N(CC3CC3)CC3CC3)nc21` [Example 17, 6-(((2-(bis(cyclopropylmethyl)amino)-7,7-dimethyl-6,7-dihydro-5H-cyclopenta[b]pyridin-3-yl)methyl)(3,5-bis(trifluoromethyl)benzyl)amino)benzo[d]oxazol-2(3H)-one], the half-maximal inhibitory concentration (IC50) was around 16 nM.
